# Like-named read-outs stand apart in the source and are kept apart here.
# Experiments:
# [1] = system: primed CD8^+ T cells (PBMCs from HLA-A2 donors); type: cell-based, human
# HLA-A2 = biological target: T1, HLA-A2 (Homo sapiens, UniProt P04439, D140Y/D185E/D98H/E176V/E277Q/G131W/G231S/I119V/I121R/I166T/I218V/L300P/L318F/N151K/N90K/P208A/P217A/Q86G/Q94H/R138H/R169H/T345S); assay: HLA–peptide binding assay (surface stabilization of HLA-A2 on T2 cells); details: differences especially at 10^−5 M and 10^−6 M
# T1 construct: T2 cells, a lymphoma-derived line expressing low amounts of HLA-A2; endogenous in cells; host or cells: T2 cells
# [2] = old donors (65–69 years, n = 8), peptide 1 μM, day 10 after priming, 24 h ELISpot, positive above 50 SFUs per 10^6 cells
sequence,measurement,setting,value
"MLDMYSVML [HLA-A2-restricted SARS-CoV-2 peptide from RdRpol, residues 5291–5299]",IFN-γ responses in old donors,[1]; [2],limited to a single donor
"SLVKPSFYV [HLA-A2-restricted SARS-CoV-2 peptide from protein E, residues 50–58]",IFN-γ responses in old donors,[1]; [2],limited to a single donor
"LLYDANYFL [HLA-A2-restricted SARS-CoV-2 peptide from ORF3a, residues 139–147]",IFN-γ responses in old donors,[1]; [2],limited to a single donor
"YLQPRTFLL [HLA-A2-restricted SARS-CoV-2 spike-derived peptide, residues 269–277]",Relative affinity for HLA-A2 (binding hierarchy among the peptides),HLA-A2,lowest relative affinities
"HLVDFQVTI [HLA-A2-restricted SARS-CoV-2 peptide from ORF6, residues 3–11]",IFN-γ responses in old donors,[1],limited to a single donor
"TLDSKTQSL [HLA-A2-restricted SARS-CoV-2 spike-derived peptide, residues 109–117]",Relative affinity for HLA-A2 (binding hierarchy among the peptides),HLA-A2,lowest relative affinities
same,IFN-γ responses in old donors,[1]; [2],no responses
"KIADYNYKL [HLA-A2-restricted SARS-CoV-2 spike-derived peptide, residues 417–425]",IFN-γ responses in old donors,[1]; [2],no responses

# Reference: publication PMC9867380, “Ageing Curtails the Diversity and Functionality of Nascent CD8^+ T Cell Responses against SARS-CoV-2” (Vaccines, 2023)
